Test system: tender mangoes
Experiment: Preservation of tender mangoes in salt solution, 45 days at room temperature
Conditions: common salt solution 2.5%, optimized nutrient salt solution 5% (matching saltiness), 25 to 35 degree centigrade
Description: Two sets of 1000 gm tender mangoes were put in two separate sterile glass bottles. First bottle was filled with common salt solution up to the neck of the bottle and the second bottle was filled with optimized nutrient salt solution prepared by a process as given in example 1 of matching saltiness. Saltiness of optimized nutrient salt is only half of common salt. While the common salt solution used was 2.5% and the optimized nutrient salt solution was 5%. Bottle closed with cap and kept for seasoning for 45 days in room temperature around 25 to 35 degree centigrade.

Q: `[Cl-].[Na+]` [common salt] was tested. Which “fungal growth at the surface of the solution” value did it give?
A: thin layer of fungal growth

— patent publication US20220152093A1, “OPTIMIZED NUTRIENT SALT COMPOSITION” (priority 2018, published 2022)
